Measured values reported in EPA's ToxRefDB 2.

Tests used:
mouse [1] = details: Subchronic oral toxicity in rodents, b6c3f1, Feed, dose end: 13 week, group: systemic
mouse [2] = details: Carcinogenicity; b6c3f1; Oral; Feed; dose end: 104 week; group: systemic; systemic / in life observation / body weight / body weight
rat [3] = details: Carcinogenicity; fischer; Oral; Feed; dose end: 104 week; group: systemic; systemic / in life observation / body weight / body weight + systemic / pathology microscopic / kidney / cytomegaly + systemic / pathology …
rat [4] = details: Subchronic oral toxicity in rodents, fischer, Feed, dose end: 13 week, group: systemic
rat [5] = details: Prenatal developmental toxicity study, sprague dawley, Oral, Gavage/Intubation, dose end: 15 GD
mouse [6] = details: Carcinogenicity, cd1, Oral, Feed, dose end: 2 year, group: systemic
rat [7] = details: Combined chronic toxicity/carcinogenicity, sprague dawley, Oral, Feed, dose end: 24 month, group: systemic
mouse [8] = details: Combined chronic toxicity/carcinogenicity, other, Oral, Feed, dose end: 80 week, group: systemic
rat [9] = details: Combined chronic toxicity/carcinogenicity; wistar; Oral; Feed; dose end: 2 year; group: systemic; systemic / in life observation / body weight / body weight gain + systemic / in life observation / food consumption / food consumption + …
dog = details: Chronic toxicity; beagle; Oral; Capsule; dose end: 52 week; group: systemic; systemic / clinical chemistry / alanine aminotransferase (alt/sgpt) / alanine aminotransferase (alt/sgpt) + systemic / in life observation…
rat [10] = details: Subchronic oral toxicity in rodents, fischer, Gavage/Intubation, dose end: 13 week, group: systemic, systemic / in life observation / body weight / body weight
mouse [11] = details: Carcinogenicity, b6c3f1, Oral, Gavage/Intubation, dose end: 2 year, group: systemic
mouse [12] = details: Subchronic oral toxicity in rodents, b6c3f1, Gavage/Intubation, dose end: 13 week, group: systemic
[13] = systemic / in life observation / body weight / body weight
[14] = systemic / in life observation / food consumption / food consumption
[15] = group: developmental, developmental / developmental malformation / bone / incomplete ossification + developmental / developmental malformation / interparietal / …
[16] = group: maternal, systemic / in life observation / body weight / body weight + systemic / in life observation / food consumption / food consumption
[17] = group: maternal, systemic / in life observation / body weight / body weight + systemic / in life observation / food consumption / food consumption + systemic…
[18] = systemic / pathology microscopic / heart / degeneration
[19] = systemic / pathology microscopic / heart / degeneration + systemic / pathology microscopic / liver / hemosiderin laden macrophages
[20] = systemic / pathology microscopic / mammary gland / adenocarcinoma
[21] = systemic / in life observation / body weight / body weight + systemic / organ weight / kidney / relative to body weight + systemic / organ …
[22] = systemic / organ weight / liver / relative to body weight
[23] = systemic / pathology microscopic / liver / vacuolization + systemic / pathology microscopic / thyroid gland / hyperplasia
[24] = systemic / pathology microscopic / liver / vacuolization + systemic / pathology microscopic / thyroid gland / hyperplasia + systemic / …
[25] = systemic / pathology microscopic / stomach / inflammation
[26] = systemic / pathology microscopic / stomach / inflammation + systemic / in life observation / body weight / body weight + systemic / …

CN(C)C(=O)Nc1ccc(Cl)cc1 [Monuron]
LEL (mouse [1]; [13]): 450 mg/kg/day | LOAEL (mouse [1]; [13]): 1800 mg/kg/day | NEL (mouse [1]; [13]): < 450 mg/kg/day | NOAEL (mouse [1]; systemic / in life observation / body weight / body weight + systemic / in life observation / mortality / mortality + systemic / pathology …): 900 mg/kg/day | LEL (mouse [2]): 750 mg/kg/day | LOAEL (mouse [2]): 750 mg/kg/day | NEL (mouse [2]): < 750 mg/kg/day | NOAEL (mouse [2]): < 750 mg/kg/day | LEL (rat [3]): 37.5 mg/kg/day | LOAEL (rat [3]): 75 mg/kg/day | NEL (rat [3]): < 37.5 mg/kg/day | NOAEL (rat [3]): 37.5 mg/kg/day | LOAEL (rat [4]; [13]): 75 mg/kg/day | NOAEL (rat [4]; systemic / in life observation / body weight / body weight + systemic / in life observation / food consumption / food consumption + systemic…): 37.5 mg/kg/day | LEL (rat [4]; [14]): 37.5 mg/kg/day | NEL (rat [4]; [14]): < 37.5 mg/kg/day

CC(C)Nc1nc(Cl)nc(NC(C)C)n1 [Propazine]
LOAEL (rat [5]; [15]): 100 mg/kg/day | NEL (rat [5]; [15]): 10 mg/kg/day | NOAEL (rat [5]; [15]): 10 mg/kg/day | LEL (rat [5]; group: developmental, developmental / developmental malformation / interparietal / incomplete ossification): 100 mg/kg/day | LEL (rat [5]; [16]): 100 mg/kg/day | LOAEL (rat [5]; [16]): 100 mg/kg/day | NEL (rat [5]; [17]): 10 mg/kg/day | NOAEL (rat [5]; [17]): 10 mg/kg/day | NEL (mouse [6]; [18]): 150 mg/kg/day | NOAEL (mouse [6]; [18]): 150 mg/kg/day | LEL (mouse [6]; [19]): 450 mg/kg/day | LOAEL (mouse [6]; [19]): 450 mg/kg/day | LOAEL (rat [7]; [13]): 51 mg/kg/day | NOAEL (rat [7]; systemic / in life observation / body weight / body weight + systemic / in life observation / body weight / body weight gain): 5.2 mg/kg/day | LEL (rat [7]; [20]): 0.2 mg/kg/day | NEL (rat [7]; [20]): < 0.2 mg/kg/day

C/C=C/C=C/C(=O)O [Sorbic acid]
LOAEL (mouse [8]; [21]): > 15000 mg/kg/day | NOAEL (mouse [8]; [21]): ≥ 15000 mg/kg/day | LEL (mouse [8]; [22]): 1500 mg/kg/day | NEL (mouse [8]; [22]): < 1500 mg/kg/day | LEL (rat [9]): 5000 mg/kg/day | LOAEL (rat [9]): > 5000 mg/kg/day | NEL (rat [9]): 750 mg/kg/day | NOAEL (rat [9]): ≥ 5000 mg/kg/day

CNC(=O)N(C)c1nnc(C(C)(C)C)s1 [Tebuthiuron]
LEL (dog): 50 mg/kg/day | LOAEL (dog): 50 mg/kg/day | NEL (dog): 25 mg/kg/day | NOAEL (dog): 25 mg/kg/day

CCCCC(CC)COP(=O)(OCC(CC)CCCC)OCC(CC)CCCC (stereo unspecified) [Tris(2-ethylhexyl) phosphate]
LEL (rat [10]): 2000 mg/kg/day | LOAEL (rat [10]): 2000 mg/kg/day | NEL (rat [10]): 1000 mg/kg/day | NOAEL (rat [10]): 1000 mg/kg/day | LEL (mouse [11]; [23]): 500 mg/kg/day | NEL (mouse [11]; [23]): < 500 mg/kg/day | LOAEL (mouse [11]; [24]): > 1000 mg/kg/day | NOAEL (mouse [11]; [24]): ≥ 1000 mg/kg/day | LEL (mouse [12]; [25]): 500 mg/kg/day | NEL (mouse [12]; [25]): < 500 mg/kg/day | LOAEL (mouse [12]; [26]): 8000 mg/kg/day | NOAEL (mouse [12]; [26]): 4000 mg/kg/day
